Test results published in patent US20230124969A1, “OPHTHALMIC FORMULATION COMPRISING N-[5-(AMINOSULFONYL)-4-METHYL-1,3- THIAZOL-2-YL]-N-METHYL-2-[4-(2-PYRIDINYL)PHENYL]ACETAMIDE HEMIHYDRATE” (AiCuris GmbH & Co. KG, priority 2020, published 2023).
Like-named read-outs stand apart in the source and are kept apart here.

Key:
Assay type in all cases: physicochemical
[1] = Preparation of 1 mg/mL PEG400 stock solution and ophthalmic formulation with different drug substances (experiments 8-10); conditions: for suitability as drug substance for preparation of the ophthalmic formulation: three tested drug substances, experiments 1-10
Method: All liquids and the DS were equilibrated to ≥ 20° C. An amount of 20 ml of PEG 400 was added to a 50 mL tube and 20 mg of DS were dissolved therein. The solution was mixed by vortexing the tube for 5 s and the tube was shaken until the DS was dissolved.
To study whether Pritelivir free base hemihydrate can be replaced with Pritelivir mesylate, Experiment 8 was repeated with Pritelivir mesylate monohydrate as DS.
The preparation protocol of Example 8 was followed also for the ophthalmic formulation containing Pritelivir mesylate monohydrate as drug substance.
To study whether Pritelivir free base hemihydrate can be replaced with Pritelivir maleate, Experiment 8 was repeated with Pritelivir maleate as DS.

[2] = Pre-test: PEG 200 stock solutions diluted in GenTeal Tears, visual check for precipitation (Example 1); conditions: stock solution in PEG 200 diluted with GenTeal tears, visual inspection
Method: In order to prepare the new ophthalmic formulation the drug substance concentrations of both i) stock solution and ii) drug product which is administered to the patient need to be determined. For that propose, a stock solution with different concentrations of Pritelivir free base hemihydrate in PEG 200 was diluted in GenTeal® tears and the precipitation was checked over time. All liquids and the DS were equilibrated to ≥ 20° C. Seven 10 mL tubes were provided. In each of these tubes, 5 ml of PEG 200 were added and the required amount of DS was dissolved therein to provide the following stock solutions: 30 mg/mL, 25 mg/mL, 20 mg/mL, 10 mg/mL, 5 mg/mL, 1 mg/mL, 0.05 mg/mL. The solutions were mixed by vortexing the tubes for 5 s and the tubes were shaken until the DS was dissolved. The stock solutions were diluted with GenTeal® tears and the pH value was measured. After that the samples were checked for precipitation by visual inspection.

[3] = In-use stability of ophthalmic formulations stored at room temperature and 2-8 °C
Method: To study the in-use stability over 5 weeks at room temperature (RT) and at a temperature in the range of from 2° C. - 8° C., stock solutions with a concentration of 1.0 mg/mL of DS were prepared in PEG200 and in PEG400. The different stock solutions were diluted in 3 different compositions of artificial tears to a final concentration of 0.05 mg DS per mL ophthalmic formulation.
An amount of 1.5 mL stock solution was diluted with 28.5 mL of the respective artificial tears solution (either GenTeal® Tears or Thera® Tears or Visine® tears) in a beaker and stirred for 2 min with a magnet stirrer. The pH value was determined and samples were taken before and after sterile filtration. The solutions were filtered through CA (cellulose acetate) 0.22 µm filter system. The content of the beaker was withdrawn and respectively 14 mL of the prepared formulation were added to two empty 50 mL tubes. In addition, one empty 2 mL tube was provided and 1.5 mL of the prepared formulation was added to the 2 mL tube. The samples were stored at RT and at a temperature in the range of from 2-8° C. over 5 weeks. […]
To study the impact of the pH value on the tendency of the ophthalmic formulation to degrade and precipitate 3 different compositions of artificial tears were adjusted to pH 4.0, 5.0 and 6.0. A stock solution of Pritelivir free base hemihydrate in PEG400 at a concentration of 1.0 mg/mL was prepared. The stock solutions were diluted in the pH adjusted artificial tears at a Pritelivir free base hemihydrate concentration of 0.05 mg/mL and filtered through a RC 0.2 µm sterile filter. It turned out to be preferable to carry out the dilution step for each sample one after the other to keep the time before the filtration step short.
All samples were prepared as triplicates. One sample was prepared after the other to keep the preparation time short and to minimize the risk of precipitation. The stock solution was diluted with pH adjusted artificial tears solution in a tube and gently mixed. A sample was taken to determine the final concentration. An amount of 20 mL of the tube was withdrawn with a 20 mL syringe. Then, the syringe was connected to the RC […] filter via Luer Lok and the solution was filtered in two portions of 10 mL each into two 50 mL tube. Another sample was taken to determine the final concentration after filtration.
The samples were stored at room temperature and at a temperature in the range of from 2° C.-8° C. over 4 weeks.
To determine an acceptable pH value for ophthalmic use, a stock solution of Pritelivir free base hemihydrate in PEG400 was prepared at a concentration 1.0 mg/mL. […]
(§1) The amount of hydrochloric acid was added as determined in the pre-testing to adjust the pH to 6.0 and a sample was taken to determine the final concentration before filtration. […]

[4] = Sterile filtration / filter compatibility: HPLC assay before and after filtration; conditions: for assay data before and after filtration: Example 3, 0.05 mg/mL DS, PEG200 stock diluted in GenTeal tears
Method: • Dilute 500 µL of each sample with 500 µL ACN/MeOH/H2O ratio 25:25:50 + 1% HAc (1:2) • Mix it 5 s by vortexing
• Dilute 250 µL of each sample with 730 µL ACN/MeOH/H2O ratio 25:25:50 + 1% HAc and add 20 µL ACN/DMSO 4:1 (1:4) • Mix it 5 s by vortexing
An amount of 1.5 mL stock solution was diluted with 28.5 mL of the respective artificial tears solution (either GenTeal® Tears or Thera® Tears or Visine® tears) in a beaker and stirred for 2 min with a magnet stirrer. The pH value was determined and samples were taken before and after sterile filtration. The solutions were filtered through CA (cellulose acetate) 0.22 µm filter system. The content of the beaker was withdrawn and respectively 14 mL of the prepared formulation were added to two empty 50 mL tubes. In addition, one empty 2 mL tube was provided and 1.5 mL of the prepared formulation was added to the 2 mL tube. The samples were stored at RT and at a temperature in the range of from 2-8° C. over 5 weeks.
(§2) The testing was repeated one time to have samples in duplicate (n=2). An amount of 6 mL of the ophthalmic formulation was withdrawn with a 10 mL syringe. An amount of 1 mL was used to determine the final concentration before filtration. The syringe was connected with a PA 0.2 µm filter via Luer Lok and the solution was filtered. Another sample was taken to determine the final concentration after filtration.
The filter was then disconnected from the syringe and an amount of 3 mL DMSO was withdrawn with the used 10 mL syringe. Then, the syringe was shaken smoothly. An amount of 1 mL was used to determine the final concentration after rinsing. The syringe was again connected to the used PA 0.2 µm filter via Luer Lok the DMSO was filtered. A sample was taken to determine the final concentration after washing.
This protocol was repeated for all tested filters: PA / Nylon, PALE / Nylon, PTFE, PVDF, CM, CA, RC, PP, PES. Each filter contained a filter material with a pore size of 0.2 µm and of 0.45 µm.
as §2, with “repeated” for “repeated one time”, “triplicate (n=3).” for “duplicate (n=2).”, “the” for “a PA 0.2 µm”
The filter was disconnected from the syringe and an amount of 2 mL DMSO was withdrawn with a fresh 10 mL syringe. The syringe was again connected to the used filter via Luer Lok and the DMSO was filtered. […]
as §1

## Cc1nc(N(C)C(=O)Cc2ccc(-c3ccccn3)cc2)sc1S(N)(=O)=O [Pritelivir free base hemihydrate, N-[5-(aminosulfonyl)-4-methyl-1,3-thiazol-2-yl]-N-methyl-2-[4-(2-pyridinyl)phenyl]acetamide hemihydrate]
[1]
  suitability as drug substance for preparation of the ophthalmic formulation: suitable
[2]
  drug load of ophthalmic formulation obtainable without any visually detectable precipitation: 24 mg/mL
[3]; Example 6, PEG400 stock diluted with GenTeal Tears, 0.05 mg/mL, after 1 week at room temperature
  impurities on storage: increase of impurities
[3]; Example 6, PEG400 stock diluted with GenTeal Tears, 0.05 mg/mL, stored at 2-8° C.
  time over which samples were stable: 1 week
[3]; pH 4.0
  stability in most artificial tears solutions: not stable
[3]; pH between 6.0 and 7.0, formulation contains glycerin, hypromellose and polyethylene glycol 400
  stability for an ophthalmic formulation: sufficiently stable
[4]; filter material PFTE 0.2 µm
  assay data before and after filtration: identical values
[4]; filter material RC 0.2 µm
  assay data before and after filtration: identical values
[4]; Example 6, 1 mg/mL PEG400 stock diluted with GenTeal Tears to 0.05 mg/mL, RC 0.2 µm filter, six samples
  assay content before and after filtration: comparable

## N-[5-(amino-sulfonyl)-4-methyl-1,3-thiazol-2-yl]-N-methyl-2-[4-(2-pyridinyl)phenyl] acetamide mesylate monohydrate [Pritelvir mesylate monohydrate]
[1]
  solubility in PEG400 / preparation of stock solution: not soluble
  suitability as drug substance for preparation of the ophthalmic formulation: insolubility and precipitation problems
[1]; Comparative Example 1, protocol of Example 8 (PEG400, Visine Tears, 0.1 M HCl)
  precipitation: Precipitation was observed
[4]; Comparative Example 1, protocol of Example 8, RC 0.2 µm filter
  assay level after filtration: decreased significantly

## Cc1nc(N(C)C(=O)Cc2ccc(-c3ccccn3)cc2)sc1S(N)(=O)=O.O=C(O)/C=C\C(=O)O [Pritelivir maleate, N-[5-(aminosulfonyl)-4-methyl-1,3-thiazol-2-yl]-N-methyl-2-[4-(2-pyridinyl)phenyl]acetamide maleate]
[1]; at a concentration of 1 mg/mL
  solubility in PEG400 / preparation of stock solution: not possible
[1]
  suitability as drug substance for preparation of the ophthalmic formulation: insolubility and precipitation problems
